We go through 8 compounds from patent US20240293558A1, “KRAS INHIBITOR CONJUGATES” (Erasca, Inc., priority 2021, published 2024).

For experiment [1], the target named is T1, KRas G12D fused to HiBiT peptide (Homo sapiens, UniProt P01116, G12D).
T1 construct: endogenous in cells; host or cells: AsPC-1 HiBiT knock-in single clone (Cas9 RNP + ssODN)
Nature of the experiment: ASPC-1 HiBit assay to determine G12D degradation. The class given is cell-based. As to conditions: AsPC-1 HiBiT cells, 24-hour incubation; read-out: ASPC-1 HiBit DC50 (C). How it is done: Compounds presented herein induce degradation of the KRas G12D (KRasG12D) upon treatment of engineered cancer cell line.
The degradation of the KRasG12D in cellular environment was measured using engineered homozygous KRasG12D AsPC-1 cell line in which KRas G12D was fused to luminescent HiBiT peptide at the N-terminal. The small (1.3 kDa) HiBiT peptide complements with high affinity to a larger (18 kDa) subunit evolved from NanoLuc (termed LgBiT). The resulting complex (i.e., reconstituted luciferase enzyme) generates bright luminescence that translates to high sensitivity (1 amol), broad dynamic range (four orders of magnitude), and rapid kinetics for real time quantitation.
To generate HiBit KRasG12D knock-in cell line, sgRNA (SEQ. ID NO: 1) and ssODN (SEQ. ID NO: 2) were designed and synthesized at GenScript.
RNP complex was generated by mixing of 100 pmol of Cas9 protein to PCR tubes containing 300 pmol sgRNA incubating the resultant complex at room temperature for 20 min. […] ssODN was added to RNP complex slowly and RNP-ssODN complex was incubated at room temperature for 10 min. RNP-ssODN complex was mixed with […] of AsPC-1 cells (1×10^6 cells total) and electroporated using Nucleofactor (Program CM-150). Cells were then incubated at ambient temperature for 5 min and transferred to a six-well plate containing 2 ml growth medium.
To select pools with the highest luminescence signal, 10^4 cells of parental AsPC-1 and transfected pools were plated in solid white 384-well tissue culture plates. 24 hours after seeding, HiBiT was detected using the Nano-Glo HiBiT Lytic Detection System (Promega) following manufacturer's instructions. Briefly, […] of Nano-Glo HiBiT Lytic Detection Reagent was added directly to the cells and mixed by inversion before recording luminescence on an Envision (Perkin-Elmer) with 0.5 s integration time.
Single clones were isolated from stable pool by limited dilution method and presence of HiBiT knock-in was verified by TA cloning and subsequent sequencing. Additionally, western blotting analysis was conducted to confirm selection of single clones with high luminescence signal.
For DC50S measurements, AsPC-1 HiBiT single clone cells were grown in RPMI 1640 medium (Invitrogen 22400-089) supplemented with 10% fetal bovine serum. Cells were seeded in 384-well tissue culture plates at a density of 7,000 cells/well and allowed to attach for 24 hours.
Test compounds were distributed directly into assay plate with the adjustment for DMSO concentration using Tecan HP D300e. For most of the experiments, the final concentration of compounds starts from 10 μM, 3-fold dilution dose response and 10 doses. […] DMSO final concentration is 1%. Each concentration of exemplary compound was tested as singleton. The negative control wells were cells with DMSO only, and the positive control wells were cells with […] inhibitor.
Following 24-hour incubation with the compounds plate and Nano-Glo® HiBiT Lytic reagents were equilibrated to room temperature. 20 μL of HiBiT Lytic reagent were added to each well. The assay plate was incubated on digital microplate shaker (350 rpm) for 20 min followed by centrifugation at 500 g for 1 min. Luminescence was recorded using Envision (Perkin-Elmer) using aperture 384-L1 with 0.1 s integration time.
HiBiT signal are used to calculate the % degradation at given compound concentration using the following formula:
% Degradation=(1−(Sample HiBiT signal−Ave Min signal)/(Ave Max signal−Ave Min signal))*100%
For DC50 calculation, the data with the hook effect were removed first and DC50S was reported using a 4-parameter fit of dose response curve using GraphPad in those cases where maximum % degradation was >50% and Minimal % degradation was <50%. The decrease in DC50 reflects that the exemplary compound led to a higher level of degradation of KRasG12D than another exemplary compound at specific timepoint of treatment of cancer cell line. […]
On the technique in general: HiBiT is a short tag that completes a luciferase, so light tracks the accessible tagged protein.

Experiment [2] has as its target T2, KRAS (WT) (Homo sapiens, UniProt P01116).
T2 construct: Biotinylated KRAS protein amino acids 1-169 (produced at Erasca); made in house
Nature of the experiment: In-vitro RAS-RAF binding assay (RRB), HTRF/FRET. Format: biochemical. As to conditions: Table 2, average of multiple runs of each compound; read-out: Inhibition of RAS-RAF Binding (in-vitro) KRAS (WT) IC50. A digest of the protocol:
(§1)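 Compounds preincubated with terbium-labelled biotinylated KRAS (aa 1-169, 30 nM) before 60 min SOS1-catalysed exchange to GTPgS. Binding of the d2-labelled cRAF RBD (30 nM) is read as FRET at equilibrium in duplicate. Buffer: 50 mM HEPES pH 7.5, 100 mM NaCl, 1 mM MgCl2, 1 mM DTT.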
(Time-resolved FRET reads energy transfer from a long-lived donor to a nearby acceptor.)

The target of experiment [3] is KRAS G12D (Homo sapiens, UniProt P01116, G12D). Nature of the experiment: In-vitro RAS-RAF binding assay (RRB), HTRF/FRET. On the set-up: Biotinylated KRAS protein amino acids 1-169 (produced at Erasca); made in house. To be noted: Table 2, average of multiple runs of each compound; read-out: Inhibition of RAS-RAF Binding (in-vitro) KRAS (G12D) IC50. Format: biochemical. A digest of the protocol:
as §1

T2 sequence (P01116 1-169 isoform P01116-2): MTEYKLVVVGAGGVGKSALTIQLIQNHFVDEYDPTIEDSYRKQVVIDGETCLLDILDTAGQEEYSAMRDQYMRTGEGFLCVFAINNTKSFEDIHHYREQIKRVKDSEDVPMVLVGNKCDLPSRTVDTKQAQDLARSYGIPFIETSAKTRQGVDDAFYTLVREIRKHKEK
KRAS G12D, sequence (P01116 1-169 isoform P01116-2 G12D): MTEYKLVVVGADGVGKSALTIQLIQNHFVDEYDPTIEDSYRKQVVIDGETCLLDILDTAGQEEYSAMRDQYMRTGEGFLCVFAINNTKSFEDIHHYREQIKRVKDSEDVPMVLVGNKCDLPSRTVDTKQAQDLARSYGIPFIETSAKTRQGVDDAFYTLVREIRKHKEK
T1 sequence (P01116 1-188 isoform P01116-2 G12D): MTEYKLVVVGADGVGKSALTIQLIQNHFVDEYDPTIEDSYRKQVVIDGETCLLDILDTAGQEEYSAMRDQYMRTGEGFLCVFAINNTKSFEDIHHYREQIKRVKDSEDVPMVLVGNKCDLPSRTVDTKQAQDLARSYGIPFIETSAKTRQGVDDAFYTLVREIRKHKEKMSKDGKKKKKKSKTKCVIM

As a reminder, the DC50 is the concentration at which degradation of the target reaches its halfway point. As a reminder, the IC50 is the concentration that gives 50% inhibition. Turning to `CC(C)[C@@H](C(=O)N1C[C@H](O)C[C@H]1C(=O)N[C@@H](C)c1ccc(-c2c(F)cc(F)cc2F)cc1)c1cc(OCC2(C)CCN(CCOc3nc(N4CC5CCC(C4)N5)c4cc(C(F)(F)F)c(-c5ccc(F)c6sc(N)c(C#N)c56)c(F)c4n3)CC2)no1` [Example 76, (2S,4R)-1-((2R)-2-(3-((1-(2-((7-(2-amino-3-cyano-7-fluorobenzo[b]thiophen-4-yl)-4-(3,8-diazabicyclo[3.2.1]octan-3-yl)-8-fluoro-6-(trifluoromethyl)quinazolin-2-yl)oxy)ethyl)-4-methylpiperidin-4-yl)methoxy)isoxazol-5-yl)-3-methylbutanoyl)-4-hydroxy-N-((S)-1-(2′,4′,6′-trifluoro-[1,1′-biphenyl]-4-yl)ethyl)pyrrolidine-2-carboxamide], the DC50 in experiment [1] was determined as 259 nM. The IC50 in experiment [2] was 1900 nM; in experiment [3], 21.9 nM.

Take `C#Cc1c(F)ccc2cc(O)cc(-c3ncc4c(N5CC6CCC(C5)N6)nc(OCCN5CCC(C)(COc6cc([C@H](C(=O)N7C[C@H](O)C[C@H]7C(=O)N[C@@H](C)c7ccc(-c8c(F)cccc8F)cc7)C(C)C)on6)CC5)nc4c3F)c12` [Example 61, (2S,4R)-1-((2R)-2-(3-((1-(2-((4-(3,8-diazabicyclo[3.2.1]octan-3-yl)-7-(8-ethynyl-7-fluoro-3-hydroxynaphthalen-1-yl)-8-fluoropyrido[4,3-d]pyrimidin-2-yl)oxy)ethyl)-4-methylpiperidin-4-yl)methoxy)isoxazol-5-yl)-3-methylbutanoyl)-N-((S)-1-(2′,6′-difluoro-[1,1′-biphenyl]-4-yl)ethyl)-4-hydroxypyrrolidine-2-carboxamide]: the values for the IC50 in experiment [2] and in experiment [3] were 1200 nM and 8.99 nM, respectively.

As to `C#Cc1c(F)ccc2cc(O)cc(-c3ncc4c(N5CC6CCC(C5)N6)nc(OC[C@@H]5CCCN5CCCOCCC(=O)O[C@H](C(=O)N5C[C@H](O)C[C@H]5C(=O)N[C@@H](C)c5ccc(-c6c(C)cccc6C(F)(F)F)cc5)C(C)(C)C)nc4c3F)c12` [Example 50, (S)-1-((2S,4R)-4-hydroxy-2-(((S)-1-(2′-methyl-6′-(trifluoromethyl)-[1,1′-biphenyl]-4-yl)ethyl)carbamoyl)pyrrolidin-1-yl)-3,3-dimethyl-1-oxobutan-2-yl 3-(3-((2S)-2-(((4-(3,8-diazabicyclo[3.2.1]octan-3-yl)-7-(8-ethynyl-7-fluoro-3-hydroxynaphthalen-1-yl)-8-fluoropyrido[4,3-d]pyrimidin-2-yl)oxy)methyl)pyrrolidin-1-yl)propoxy)propanoate], the IC50 came out at 98.9 nM in experiment [2] and 10.2 nM in experiment [3].

Regarding `C#Cc1c(F)ccc2cc(O)cc(-c3ncc4c(N5CC6CCC(C5)N6)nc(OC[C@@H]5CCCN5CCCOCCC(=O)N[C@H](C(=O)N5C[C@H](O)C[C@H]5C(=O)N[C@@H](C)c5ccc(-c6cc(F)c(F)c(F)c6)cc5)C(C)(C)C)nc4c3F)c12` [Example 52, (2S,4R)-1-((2S)-2-(3-(3-((2S)-2-(((4-(3,8-diazabicyclo[3.2.1]octan-3-yl)-7-(8-ethynyl-7-fluoro-3-hydroxynaphthalen-1-yl)-8-fluoropyrido[4,3-d]pyrimidin-2-yl)oxy)methyl)pyrrolidin-1-yl)propoxy)propanamido)-3,3-dimethylbutanoyl)-4-hydroxy-N-((S)-1-(3′,4′,5′-trifluoro-[1,1′-biphenyl]-4-yl)ethyl)pyrrolidine-2-carboxamide], the IC50 stood at 114 nM in experiment [2] and 7.84 nM in experiment [3].

Take `C[C@H](NC(=O)[C@@H]1C[C@@H](O)CN1C(=O)[C@@H](NC(=O)CCOCCCN1CCC[C@H]1COc1nc(N2CC3CCC(C2)N3)c2cc(C(F)(F)F)c(-c3ccc(F)c4sc(N)c(C#N)c34)cc2n1)C(C)(C)C)c1ccc(-c2c(F)cccc2F)cc1` [Example 21, (2S,4R)-1-((2S)-2-(3-(3-((2S)-2-(((7-(2-amino-3-cyano-7-fluorobenzo [b]thiophen-4-yl)-4-(3,8-diazabicyclo[3.2.1]octan-3-yl)-6-(trifluoromethyl)quinazolin-2-yl)oxy)methyl)pyrrolidin-1-yl)propoxy)propanamido)-3,3-dimethylbutanoyl)-N—((S)-1-(2′,6′-difluoro-[1,1′-biphenyl]-4-yl)ethyl)-4-hydroxypyrrolidine-2-carboxamide]: the IC50 came to 162 nM in experiment [2] and 14.4 nM in experiment [3].

Regarding `C#Cc1c(F)ccc2cc(O)cc(-c3ncc4c(N5CC6CCC(C5)N6)nc(OC[C@@H]5CCCN5CCCOCCC(=O)N[C@H](C(=O)N5C[C@H](O)C[C@H]5C(=O)N[C@@H](C)c5ccc(N6CCC[C@H]6C#N)cc5)C(C)(C)C)nc4c3F)c12` [Example 33, (2S,4R)-1-((2S)-2-(3-(3-((2S)-2-(((4-(3,8-diazabicyclo[3.2.1]octan-3-yl)-7-(8-ethynyl-7-fluoro-3-hydroxynaphthalen-1-yl)-8-fluoropyrido[4,3-d]pyrimidin-2-yl)oxy)methyl)pyrrolidin-1-yl)propoxy)propanamido)-3,3-dimethylbutanoyl)-N—((S)-1-(4-((S)-2-cyanopyrrolidin-1-yl)phenyl)ethyl)-4-hydroxypyrrolidine-2-carboxamide], the IC50 in experiment [2] worked out at 3.05 nM; in experiment [3], 7.48 nM.

Turning to `C[C@H](NC(=O)[C@@H]1C[C@@H](O)CN1C(=O)[C@@H](NC(=O)CCOCCCN1CCC[C@H]1COc1nc(N2CC3CCC(C2)N3)c2cc(C(F)(F)F)c(-c3ccc(F)c4sc(N)c(C#N)c34)c(F)c2n1)C(C)(C)C)c1ccc(-c2c(F)cccc2F)cc1` [Example 79, (2S,4R)-1-((2S)-2-(3-(3-((2S)-2-((((7R)-7-(2-amino-3-cyano-7-fluorobenzo[b]thiophen-4-yl)-4-(3,8-diazabicyclo[3.2.1]octan-3-yl)-8-fluoro-6-(trifluoromethyl)quinazolin-2-yl)oxy)methyl)pyrrolidin-1-yl)propoxy)propanamido)-3,3-dimethylbutanoyl)-N-((S)-1-(2′,6′-difluoro-[1,1′-biphenyl]-4-yl)ethyl)-4-hydroxypyrrolidine-2-carboxamide], the IC50 in experiment [2] and in experiment [3] was > 10000 nM throughout.

Turning to `C#Cc1c(F)ccc2cc(O)cc(-c3ncc4c(N5CC6CCC(C5)N6)nc(OC[C@@H]5CCCN5CCCOCC(=O)N[C@H](C(=O)N5C[C@H](O)C[C@H]5C(=O)N[C@@H](C)c5ccc(-c6c(F)ccc(F)c6F)cc5)C(C)(C)C)nc4c3F)c12` [Example 53, (2S,4R)-1-((2S)-2-(2-(3-((2S)-2-(((4-(3,8-diazabicyclo[3.2.1]octan-3-yl)-7-(8-ethynyl-7-fluoro-3-hydroxynaphthalen-1-yl)-8-fluoropyrido[4,3-d]pyrimidin-2-yl)oxy)methyl)pyrrolidin-1-yl)propoxy)acetamido)-3,3-dimethylbutanoyl)-4-hydroxy-N-((S)-1-(2′,3′,6′-trifluoro-[1,1′-biphenyl]-4-yl)ethyl)pyrrolidine-2-carboxamide], the IC50 stood at 123 nM in experiment [2] and 8.82 nM in experiment [3].
